Data from ChEMBL document CHEMBL1201862, “PubChem BioAssay data set” (2004).
The source made the active and inactive calls.

Tests used:
Steroidogenic factor 1 = Steroidogenic factor 1 (Homo sapiens, UniProt Q13285); experiment: Counterscreen for inverse agonists of the liver receptor homolog-1 (LRH-1; NR5A2): Luminescence-based cell-based high throughput dose response assay to identify inverse agonists of the Steroidogenic Factor 1 Nuclear Receptor (SF1; NR5A1).; type: functional
[1] = target: Nuclear receptor subfamily 5 group A member 2 (Homo sapiens, UniProt O00482); type: functional, cell-based;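 further: HEK293T cells transfected with LRH-1 and a StAR promoter luciferase reporter; potency for inhibitors that lower LRH-1 driven reporter light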
[2] = StAR promoter reporter inhibition counter-screen, dose response, counter-screen for LRH-1 inverse agonist project, cell-based, luminescence, luciferase reporter (AID 651969); type: functional
Streptococcus = experiment: Group A Streptococcus viability loss, dose response, counter-screen for streptokinase expression inhibitor project, luminescence, BacTiterGlo (AID 1915); type: functional, organism-based;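 further: potency for reduction of bacterial viability or growth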
Beta-galactosidase = Beta-galactosidase (Escherichia coli, UniProt Q8VNN2); experiment: beta-galactosidase enzyme inhibitors and activators, dose response, artefact control for CCR6 antagonist project, biochemical, E. coli enzyme, set 3 (AID 504712); type: functional
[3] = system: Streptococcus sp. 'group A'; experiment: growth inhibition of control SK(-) GAS strain, dose response, counter-screen for streptokinase expression inhibitor project, luminescence, kanamycin, BacTiterGlo, confirmation (AID 1900); type: functional, organism-based
[4] = target: Photoreceptor-specific nuclear receptor (Homo sapiens, UniProt Q9Y5X4); type: functional, cell-based;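 further: CHO-S cells with Gal4-NCOR and VP16-NR2E3 two-hybrid luciferase reporter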
[5] = target: T1, Adenosylmethionine-8-amino-7-oxononanoate aminotransferase (Mycobacterium tuberculosis, UniProt P9WQ81); experiment: Mycobacterium tuberculosis BioA enzyme inhibitor Measured in Biochemical System Using Plate Reader - 2163-02_Inhibitor_Dose_CherryPick_Activity.; type: functional, Mycobacterium tuberculosis UT205
T1 sequence (P9WQ81 whole entry): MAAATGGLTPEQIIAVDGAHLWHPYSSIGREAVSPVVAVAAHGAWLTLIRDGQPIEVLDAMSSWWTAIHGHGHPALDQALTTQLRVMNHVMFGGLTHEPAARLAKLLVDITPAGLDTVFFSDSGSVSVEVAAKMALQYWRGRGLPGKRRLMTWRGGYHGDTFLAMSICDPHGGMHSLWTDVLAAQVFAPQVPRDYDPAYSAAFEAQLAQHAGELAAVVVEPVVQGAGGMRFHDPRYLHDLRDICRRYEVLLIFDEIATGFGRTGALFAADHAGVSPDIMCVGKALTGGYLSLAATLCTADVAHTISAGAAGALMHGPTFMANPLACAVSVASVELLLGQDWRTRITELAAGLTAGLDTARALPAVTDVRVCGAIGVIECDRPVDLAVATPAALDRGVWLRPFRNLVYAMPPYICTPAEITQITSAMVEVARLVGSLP

[6] = target: T2, Small ubiquitin-related modifier 1 (Homo sapiens, UniProt P63165); experiment: inhibitors of SUMO1 peptide binding, dose response, biochemical, fluorescence polarization, uHTS hits (AID 624382); type: functional; settings: read-out: IC50_Mean
[7] = target: T2, Small ubiquitin-related modifier 1; experiment: inhibitors of SUMO1 partner interactions, dose response, biochemical, FRET (AID 624383); type: functional; settings: read-out: IC50_Mean

Chain of Steroidogenic factor 1 (Q13285 whole entry): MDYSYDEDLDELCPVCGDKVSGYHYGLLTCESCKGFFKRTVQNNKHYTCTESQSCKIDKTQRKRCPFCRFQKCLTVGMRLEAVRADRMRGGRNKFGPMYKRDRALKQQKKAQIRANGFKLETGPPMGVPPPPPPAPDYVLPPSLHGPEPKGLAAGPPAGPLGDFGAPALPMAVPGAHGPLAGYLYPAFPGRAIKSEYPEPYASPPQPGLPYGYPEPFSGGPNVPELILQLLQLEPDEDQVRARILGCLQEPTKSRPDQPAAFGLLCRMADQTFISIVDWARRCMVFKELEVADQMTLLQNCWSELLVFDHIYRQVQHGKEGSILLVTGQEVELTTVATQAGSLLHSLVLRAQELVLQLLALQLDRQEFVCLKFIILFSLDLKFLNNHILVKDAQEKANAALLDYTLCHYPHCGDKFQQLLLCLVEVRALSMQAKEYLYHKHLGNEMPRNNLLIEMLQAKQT
T2 sequence (P63165 whole entry): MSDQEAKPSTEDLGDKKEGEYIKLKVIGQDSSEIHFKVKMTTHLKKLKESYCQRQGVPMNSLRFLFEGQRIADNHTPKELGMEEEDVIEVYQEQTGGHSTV
Chain of Nuclear receptor subfamily 5 group A member 2 (O00482 whole entry): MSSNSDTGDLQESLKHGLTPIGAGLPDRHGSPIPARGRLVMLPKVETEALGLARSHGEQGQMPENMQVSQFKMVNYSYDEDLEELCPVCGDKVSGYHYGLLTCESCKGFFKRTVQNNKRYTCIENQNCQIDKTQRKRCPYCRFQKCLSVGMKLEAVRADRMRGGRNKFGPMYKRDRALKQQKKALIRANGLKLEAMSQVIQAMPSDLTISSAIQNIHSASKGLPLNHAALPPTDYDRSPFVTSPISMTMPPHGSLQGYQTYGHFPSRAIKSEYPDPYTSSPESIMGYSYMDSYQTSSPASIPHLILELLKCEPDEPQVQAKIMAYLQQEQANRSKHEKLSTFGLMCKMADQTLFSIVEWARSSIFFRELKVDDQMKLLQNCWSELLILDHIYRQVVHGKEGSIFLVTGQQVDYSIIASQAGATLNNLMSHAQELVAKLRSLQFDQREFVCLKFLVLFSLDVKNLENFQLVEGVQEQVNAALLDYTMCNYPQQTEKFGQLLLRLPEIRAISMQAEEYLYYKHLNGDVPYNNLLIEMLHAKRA
Chain of Photoreceptor-specific nuclear receptor (Q9Y5X4 whole entry, the tested form may be a part): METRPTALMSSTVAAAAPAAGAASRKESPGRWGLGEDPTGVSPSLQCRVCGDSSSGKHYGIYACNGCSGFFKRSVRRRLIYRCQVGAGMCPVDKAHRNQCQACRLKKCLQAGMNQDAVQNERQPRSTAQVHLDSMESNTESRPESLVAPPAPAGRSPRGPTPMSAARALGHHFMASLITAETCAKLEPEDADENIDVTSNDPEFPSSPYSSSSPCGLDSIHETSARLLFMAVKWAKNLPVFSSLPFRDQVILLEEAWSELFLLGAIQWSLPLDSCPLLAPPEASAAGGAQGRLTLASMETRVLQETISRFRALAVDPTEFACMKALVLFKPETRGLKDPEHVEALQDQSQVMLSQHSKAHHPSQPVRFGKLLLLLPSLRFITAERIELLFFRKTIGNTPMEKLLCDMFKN
Chain of Beta-galactosidase (Q8VNN2 whole entry): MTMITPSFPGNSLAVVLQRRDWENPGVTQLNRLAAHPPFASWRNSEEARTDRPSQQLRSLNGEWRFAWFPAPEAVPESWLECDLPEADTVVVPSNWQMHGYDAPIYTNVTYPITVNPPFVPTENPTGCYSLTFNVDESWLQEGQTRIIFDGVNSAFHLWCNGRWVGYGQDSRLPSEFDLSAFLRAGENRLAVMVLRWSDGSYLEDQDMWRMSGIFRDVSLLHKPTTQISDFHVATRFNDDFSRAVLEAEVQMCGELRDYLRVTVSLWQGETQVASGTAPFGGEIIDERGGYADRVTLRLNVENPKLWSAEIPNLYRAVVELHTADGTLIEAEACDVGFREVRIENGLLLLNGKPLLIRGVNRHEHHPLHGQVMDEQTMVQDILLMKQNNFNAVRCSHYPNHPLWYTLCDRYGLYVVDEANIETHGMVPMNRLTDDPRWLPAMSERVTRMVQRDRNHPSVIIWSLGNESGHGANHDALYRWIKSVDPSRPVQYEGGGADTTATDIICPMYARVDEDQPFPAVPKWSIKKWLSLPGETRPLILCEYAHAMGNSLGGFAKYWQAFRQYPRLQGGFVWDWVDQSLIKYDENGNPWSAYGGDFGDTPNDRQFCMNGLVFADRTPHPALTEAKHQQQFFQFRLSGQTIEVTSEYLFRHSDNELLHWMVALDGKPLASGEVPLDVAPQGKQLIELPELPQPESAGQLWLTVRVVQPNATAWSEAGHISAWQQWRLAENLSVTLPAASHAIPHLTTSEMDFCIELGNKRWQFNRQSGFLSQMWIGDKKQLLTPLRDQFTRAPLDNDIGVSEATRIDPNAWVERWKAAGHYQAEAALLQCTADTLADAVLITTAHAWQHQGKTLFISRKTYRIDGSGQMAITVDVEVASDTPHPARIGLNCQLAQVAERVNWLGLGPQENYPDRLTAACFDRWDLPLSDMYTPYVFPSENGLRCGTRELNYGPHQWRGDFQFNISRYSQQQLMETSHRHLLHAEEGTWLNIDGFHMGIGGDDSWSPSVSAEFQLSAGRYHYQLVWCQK

Q: With `COC(=O)c1ccc(CNC(=O)COC(=O)c2cc(Cl)nc(Cl)c2)cc1` as the compound, how does the IC50 (Steroidogenic factor 1) read?
A: 12 µM (inactive)

Q: What about the IC50 [1] of the same compound?
A: 12 µM (inactive)

Q: And the IC50 [2]?
A: 35.9 µM (inactive)

Q: With `Cc1cc(Br)ccc1NC(=O)CN1C(=O)CCC1=O` as the compound, how does the IC50 (Steroidogenic factor 1) read?
A: 0.877 µM (active)

Q: And the IC50 [1]?
A: 12 µM (inactive)

Q: What about the IC50 [2] of the same compound?
A: 35.9 µM (inactive)

Q: With `Cc1ccc(Cc2cnc(N3C(=N)SC(C)C3=O)s2)cc1` (stereo not given) as the compound, how does the EC50 (Streptococcus) read?
A: 3.44 µM (active)

Q: What about the IC50 (Beta-galactosidase) of the same compound?
A: > 66.6 µM (inactive)

Q: What about the EC50 [3] of the same compound?
A: 0.574 µM (active)

Q: What about the IC50 [4] of the same compound?
A: 1.89 µM (active)

Q: With `CC1CN(C(=O)Nc2ccc3snnc3c2)c2ccccc21` (stereo not given) as the compound, how does the AC50 [5] read?
A: 0.212 µM (active)

Q: For `C=CCCC(=O)Nc1nc(C)c(-c2csc(Nc3cccc(OC)c3)n2)s1`, which IC50 [6] is on record?
A: > 66.6 µM (inactive)

Q: What about the IC50 [7] of the same compound?
A: 17.7 µM (active)

Q: Which AC50 [5] does the source give for `O=C(Nc1ccc(F)cc1)NC1CCN(Cc2nnnn2Cc2ccco2)CC1` here?
A: 3.58 µM (active)

Q: Which results are given for `CCOc1ccc(NC(=O)COC(=O)CC2CCCCC2)cc1`?
A: IC50 (Steroidogenic factor 1): 35.9 µM (inactive); IC50 [1]: 35.9 µM (inactive); IC50 [2]: 35.9 µM (inactive)

Q: For `O=C(CN1C(=O)C(c2ccc(F)cc2)=NC12CCCC2)Nc1ccc(F)cc1`, which IC50 [4] is on record?
A: 2.93 µM (active)

Q: With `CC(=O)c1cccc(NC(=O)c2cccc(N3C(=O)c4ccccc4C3=O)c2)c1` as the compound, how does the IC50 [6] read?
A: > 66.6 µM (inactive)

Q: What about the IC50 [7] of the same compound?
A: 8.03 µM (active)
